# Test results reported in patent publication US11667701B2, “Anti-PfRH5 antibodies and antigen-binding fragments thereof” (priority 2018, dated 2023).
# System: Plasmodium falciparum strain 3D7
# Assay: Growth inhibition assay with or without chloroquine, strain 3D7 (Example 3)
# Type: cell-based
# Description: Each P. falciparum strain (BEI Resources) was first synchronized with 5% D-sorbitol following standard protocols at 3-5% hematocrit and 1-2% parasitaemia 20-24 hours prior to the start of the assay. Infected human erythrocytes were prepared at a starting parasitaemia of 0.4-0.7% and 2% hematocrit. Infected erythrocytes were combined with PfRH5-specific or control antibodies starting at a concentration of 666.67 nM with 1:5 serial dilution for each IgG1 antibody and chloroquine at one of two concentrations, 4.91 or 6.58 nM. […] The parasites were grown for 40-48 h until the schizont stage was reached (one complete life cycle). Parasite growth was stopped with three washes of cold PBS. Final parasitaemia was determined by measuring the parasite lactate dehydrogenase (LDH) activity. Percent growth inhibition was expressed relative to uninfected erythrocytes.
structure (smiles),measurement,value
"CCN(CC)CCCC(C)Nc1ccnc2cc(Cl)ccc12 (stereo not shown) [chloroquine, reference compound]",1025 of chloroquine with the susceptible 3D7 strain,4.91 nM
